Results published in patent publication US20240390298A1, “CYCLOHEXYL BETA-HYDROXY ALKYL AMINES AND MEDICAL USES THEREOF” (ATROGI AB, priority 2021, published 2024).
Where a name gives a salt, the structure may show the parent alone.

Columns and labels:
L6-myotubes [1] = test: Glucose uptake in differentiated L6-myotubes (3H-2-deoxyglucose), compared to isoproterenol; format: cell-based; settings: agonist 1×10^−5 M, 50 nM 3H-2-deoxyglucose; for Emax at 10 µM: read-out: Biological example 1: glucose uptake, activity compared to that of isoproterenol
Procedure: (§1) L6-myoblasts were grown in Dulbecco's Modified Eagle's Medium (DMEM) containing 1 g/L glucose supplemented with 10% fetal bovine serum, 2 mM L-Glutamine, 50 U/mL penicillin, 50 μg/mL streptomycin and 10 mM HEPES. Cells were plated at 1×10^5 cells per mL in 24-well plates. After reaching 90% confluence the cells were grown in medium containing 2% FBS for 7 days where upon cells differentiated into myotubes.
Differentiated L6-myotubes were serum-starved overnight in medium containing 0.5% fatty-acid free BSA and stimulated with an agonist, with a final concentration of 1×10^−5 M. After 1 h 40 min the cells were washed with warm glucose free medium or PBS twice and another portion of agonist was added to the glucose free medium. After 20 min the cells were exposed to 50 nM ^3H-2-deoxyglucose for 10 min before washed with ice cold glucose free medium or PBS three times and lysed with 0.2 M NaOH, 400 μL/well, for 1 h at 60° C. The cell lysate was mixed with 4 mL scintillation buffer (Emulsifier Safe, Perkin Elmer) and the radioactivity was detected in a β-counter (Tri-Carb 4810TR, Perkin Elmer). The activity for each compound is compared to that of isoproterenol.

L6-myotubes [2] = test: Measurement of intracellular cAMP levels in differentiated L6 cells (alpha screen cAMP kit), compared to isoproterenol; format: cell-based; settings: Rattus norvegicus, L6, 0.25 h, agonist 1×10^−5 M, 15 min, read-out: Biological example 2: intracellular cAMP levels, activity compared to that of isoproterenol
Procedure: as §1
Differentiated cells were serum-starved overnight and stimulated with an agonist, final concentration 1×10^−5 M, for 15 min in stimulation buffer (HBSS supplemented with 1% BSA, 5 mM HEPES and 1 mM IBMX, pH 7.4). The medium was aspirated and 100 μL of 95% EtOH was added to each well of the 24-well plate and cells were kept at −20° C. overnight. The EtOH was allowed to evaporate and 500 μL of lysis buffer (1% BSA, 5 mM HEPES and 0.3% Tween-20, pH 7.4) was added to each well. The plate was kept at −80° C. for 30 min and then at −20° C. until the day of detection when the samples were thawed. Intracellular cAMP levels were detected using an alpha screen cAMP kit (6760635D from Perkin Elmer). The activity for each compound is compared to that of isoproterenol.

Work on `O[C@@H](CNCCCC1CCC(OCc2ccccc2)CC1)c1cccc(F)c1` (stereo partly drawn) [Example 53, (R)-2-((3-((1r,4S)-4-(Benzyloxy)cyclohexyl)propyl)amino)-1-(3-fluoro-phenyl)ethan-1-ol] yielded an Emax at 10 µM (L6-myotubes [1]) of 25 to 50% and an Emax at 10 µM (L6-myotubes [2]) of less than 25%.
In the case of `O[C@@H](CNCCCC1CCC(OCc2ccccc2)CC1)c1cncc(F)c1` (stereo partly drawn) [Example 54, (R)-2-((3-((1r,4S)-4-(Benzyloxy)cyclohexyl)propyl)amino)-1-(5-fluoro-pyridin-3-yl)ethan-1-ol], the Emax at 10 µM (L6-myotubes [1]) is reported as 25 to 50% and the Emax at 10 µM (L6-myotubes [2]) is reported as less than 25%.
With `O[C@@H](CNCCC[C@H]1CC[C@@H](OCc2ccccc2)CC1)c1cccc(F)c1` [Example 55, (R)-2-((3-((1s,4R)-4-(Benzyloxy)cyclohexyl)propyl)amino)-1-(3-fluoro-phenyl)ethan-1-ol] the Emax at 10 µM (L6-myotubes [1]) was 25 to 50% and the Emax at 10 µM (L6-myotubes [2]) was less than 25%.
`O[C@@H](CNCCC[C@H]1CC[C@@H](OCc2ccccc2)CC1)c1cncc(F)c1` [Example 56, (R)-2-((3-((1s,4R)-4-(Benzyloxy)cyclohexyl)propyl)amino)-1-(5-fluoro-pyridin-3-yl)ethan-1-ol] was tested, and the “Biological example 1: glucose uptake, activity compared to that of isoproterenol” value (L6-myotubes [1]) was “+ +” and the Emax at 10 µM (L6-myotubes [2]) was less than 25%.
With `O[C@@H](CNCCC[C@H]1CC[C@H](O)CC1)c1cccc(F)c1` [Example 57, (1S,4r)-4-(3-(((R)-2-(3-Fluorophenyl)-2-hydroxyethyl)amino)propyl)-cyclohexan-1-ol] the “Biological example 1: glucose uptake, activity compared to that of isoproterenol” value (L6-myotubes [1]) was “+ +” and the Emax at 10 µM (L6-myotubes [2]) was less than 25%.
Work on `O[C@@H](CNCCC[C@H]1CC[C@H](O)CC1)c1cncc(F)c1` [Example 58, (1S,4r)-4-(3-(((R)-2-(5-Fluoropyridin-3-yl)-2-hydroxyethyl)amino)-propyl)cyclohexan-1-ol] yielded an Emax at 10 µM (L6-myotubes [1]) of 25 to 50% and an Emax at 10 µM (L6-myotubes [2]) of less than 25%.
For `O[C@@H](CNCCC[C@H]1CC[C@@H](O)CC1)c1cccc(F)c1` [Example 59, (1R,4s)-4-(3-(((R)-2-(3-Fluorophenyl)-2-hydroxyethyl)amino)propyl)-cyclohexan-1-ol], the Emax at 10 µM (L6-myotubes [1]) was 25 to 50% and the Emax at 10 µM (L6-myotubes [2]) was less than 25%.
With `O[C@@H](CNCCC[C@H]1CC[C@@H](O)CC1)c1cncc(F)c1` [Example 60, (1R,4s)-4-(3-(((R)-2-(5-Fluoropyridin-3-yl)-2-hydroxyethyl)amino)propyl)-cyclohexan-1-ol] the “Biological example 1: glucose uptake, activity compared to that of isoproterenol” value (L6-myotubes [1]) was “+ +” and the Emax at 10 µM (L6-myotubes [2]) was less than 25%.
For `CC(C)(CC[C@H]1CC[C@H](O)CC1)NC[C@H](O)c1cccc(F)c1` [Example 61, (1S,4r)-4-(3-(((R)-2-(3-Fluorophenyl)-2-hydroxyethyl)amino)-3-methyl-butyl)cyclohexan-1-ol], the Emax at 10 µM (L6-myotubes [1]) was 25 to 50% and the Emax at 10 µM (L6-myotubes [2]) was less than 25%.
For `CC(C)(CCC1CCC(O)CC1)NC[C@H](O)c1ccccc1F` (stereo partly drawn) [Example 62, (1S,4r)-4-(3-(((R)-2-(2-Fluorophenyl)-2-hydroxyethyl)amino)-3-methyl-butyl)cyclohexan-1-ol], the “Biological example 1: glucose uptake, activity compared to that of isoproterenol” value (L6-myotubes [1]) was “+ + +” and the Emax at 10 µM (L6-myotubes [2]) was less than 25%.
With `CC(C)(CC[C@H]1CC[C@H](O)CC1)NC[C@H](O)c1cncc(F)c1` [Example 63, (1S,4r)-4-(3-(((R)-2-(5-Fluoropyridin-3-yl)-2-hydroxyethyl)amino)-3-methylbutyl)cyclohexan-1-ol] the Emax at 10 µM (L6-myotubes [1]) was 25 to 50% and the Emax at 10 µM (L6-myotubes [2]) was less than 25%.
In the case of `CC(C)(CC[C@H]1CC[C@@H](O)CC1)NC[C@H](O)c1cccc(F)c1` [Example 64, (1R,4s)-4-(3-(((R)-2-(3-Fluorophenyl)-2-hydroxyethyl)amino)-3-methyl-butyl)cyclohexan-1-ol], the “Biological example 1: glucose uptake, activity compared to that of isoproterenol” value (L6-myotubes [1]) is reported as “+ + +” and the Emax at 10 µM (L6-myotubes [2]) is reported as less than 25%.
With `CC(C)(CC[C@H]1CC[C@@H](O)CC1)NC[C@H](O)c1ccccc1F` [Example 65, (1R,4s)-4-(3-(((R)-2-(2-Fluorophenyl)-2-hydroxyethyl)amino)-3-methyl-butyl)cyclohexan-1-ol] the “Biological example 1: glucose uptake, activity compared to that of isoproterenol” value (L6-myotubes [1]) was “+ + +” and the Emax at 10 µM (L6-myotubes [2]) was 25 to 50%.
`CC(C)(CC[C@H]1CC[C@@H](O)CC1)NC[C@H](O)c1cncc(F)c1` [Example 66, (1R,4s)-4-(3-(((R)-2-(5-Fluoropyridin-3-yl)-2-hydroxyethyl)amino)-3-methylbutyl)cyclohexan-1-ol dihydrochloride] was tested, and the “Biological example 1: glucose uptake, activity compared to that of isoproterenol” value (L6-myotubes [1]) was “+ +” and the Emax at 10 µM (L6-myotubes [2]) was less than 25%.
Compound `CC(=O)N[C@H]1CC[C@H](CNC[C@H](O)c2cccc(F)c2)CC1` [Example 67, N-((1R,4r)-4-((((R)-2-(3-Fluorophenyl)-2-hydroxyethyl)amino)methyl)-cyclohexyl)acetamide] has an Emax at 10 µM (L6-myotubes [1]) of 25 to 50% and an Emax at 10 µM (L6-myotubes [2]) of less than 25%.
Work on `CC(=O)N[C@H]1CC[C@H](CNC[C@H](O)c2cncc(F)c2)CC1` [Example 68, N-((1R,4r)-4-((((R)-2-(5-Fluoropyridin-3-yl)-2-hydroxyethyl)amino)-methyl)cyclohexyl)acetamide] yielded an Emax at 10 µM (L6-myotubes [1]) of 25 to 50% and an Emax at 10 µM (L6-myotubes [2]) of less than 25%.
`O=C(N[C@H]1CC[C@H](CNC[C@H](O)c2cccc(F)c2)CC1)c1ccccc1` [Example 69, N-((1R,4r)-4-((((R)-2-(3-Fluorophenyl)-2-hydroxyethyl)amino)-methyl)cyclohexyl)benzamide] was tested, and the “Biological example 1: glucose uptake, activity compared to that of isoproterenol” value (L6-myotubes [1]) was “+ + +” and the Emax at 10 µM (L6-myotubes [2]) was less than 25%.
With `O=C(N[C@H]1CC[C@H](CNC[C@H](O)c2cncc(F)c2)CC1)c1ccccc1` [Example 70, N-((1R,4r)-4-((((R)-2-(5-Fluoropyridin-3-yl)-2-hydroxyethyl)amino)methyl)-cyclohexyl)benzamide] the Emax at 10 µM (L6-myotubes [1]) was 25 to 50% and the Emax at 10 µM (L6-myotubes [2]) was less than 25%.
With `CS(=O)(=O)N[C@H]1CC[C@H](CNC[C@H](O)c2cccc(F)c2)CC1` [Example 71, N-((1R,4r)-4-((((R)-2-(3-Fluorophenyl)-2-hydroxyethyl)amino)methyl)-cyclohexyl)methanesulfonamide] the “Biological example 1: glucose uptake, activity compared to that of isoproterenol” value (L6-myotubes [1]) was “+ +” and the Emax at 10 µM (L6-myotubes [2]) was less than 25%.
`CS(=O)(=O)N[C@H]1CC[C@H](CNC[C@H](O)c2cncc(F)c2)CC1` [Example 72, N-((1R,4r)-4-((((R)-2-(5-Fluoropyridin-3-yl)-2-hydroxyethyl)amino)methyl)-cyclohexyl)methanesulfonamide] was tested, and the Emax at 10 µM (L6-myotubes [1]) was 25 to 50% and the Emax at 10 µM (L6-myotubes [2]) was less than 25%.
`CC(=O)N[C@H]1CC[C@@H](CNC[C@H](O)c2cccc(F)c2)CC1` [Example 73, N-((1S,4s)-4-((((R)-2-(3-Fluorophenyl)-2-hydroxyethyl)amino)-methyl)cyclohexyl)acetamide] was tested, and the “Biological example 1: glucose uptake, activity compared to that of isoproterenol” value (L6-myotubes [1]) was “+ +” and the Emax at 10 µM (L6-myotubes [2]) was less than 25%.
For `CC(=O)N[C@H]1CC[C@@H](CNC[C@H](O)c2cncc(F)c2)CC1` [Example 74, N-((1S,4s)-4-((((R)-2-(5-Fluoropyridin-3-yl)-2-hydroxyethyl)amino)-methyl)cyclohexyl)acetamide], the Emax at 10 µM (L6-myotubes [1]) was 25 to 50% and the Emax at 10 µM (L6-myotubes [2]) was less than 25%.
`O=C(N[C@H]1CC[C@@H](CNC[C@H](O)c2cccc(F)c2)CC1)c1ccccc1` [Example 75, N-((1S,4s)-4-((((R)-2-(3-Fluorophenyl)-2-hydroxyethyl)amino)methyl)-cyclohexyl)benzamide] was tested, and the “Biological example 1: glucose uptake, activity compared to that of isoproterenol” value (L6-myotubes [1]) was “+ +” and the Emax at 10 µM (L6-myotubes [2]) was less than 25%.
In the case of `O=C(N[C@H]1CC[C@@H](CNC[C@H](O)c2cncc(F)c2)CC1)c1ccccc1` [Example 76, N-((1S,4s)-4-((((R)-2-(5-Fluoropyridin-3-yl)-2-hydroxyethyl)amino)methyl)-cyclohexyl)benzamide], the “Biological example 1: glucose uptake, activity compared to that of isoproterenol” value (L6-myotubes [1]) is reported as “+ +” and the Emax at 10 µM (L6-myotubes [2]) is reported as less than 25%.
For `CS(=O)(=O)N[C@H]1CC[C@@H](CNC[C@H](O)c2cccc(F)c2)CC1` [Example 77], the “Biological example 1: glucose uptake, activity compared to that of isoproterenol” value (L6-myotubes [1]) was “+ +” and the Emax at 10 µM (L6-myotubes [2]) was less than 25%.
For `CS(=O)(=O)N[C@H]1CC[C@@H](CNC[C@H](O)c2cncc(F)c2)CC1` [Example 78, N-((1S,4s)-4-((((R)-2-(5-Fluoropyridin-3-yl)-2-hydroxyethyl)amino)methyl)-cyclohexyl)methanesulfonamide], the “Biological example 1: glucose uptake, activity compared to that of isoproterenol” value (L6-myotubes [1]) was “+ +” and the Emax at 10 µM (L6-myotubes [2]) was less than 25%.
With `CC(C)(NC[C@H](O)c1cncc(F)c1)[C@H]1CC[C@H](N)CC1` [Example 79] the Emax at 10 µM (L6-myotubes [1]) was less than 25% and the Emax at 10 µM (L6-myotubes [2]) was less than 25%.
`CC(=O)N[C@H]1CC[C@H](C(C)(C)NC[C@H](O)c2cncc(F)c2)CC1` [Example 81, N-((1R,4r)-4-(2-(((R)-2-(5-Fluoropyridin-3-yl)-2-hydroxyethyl)amino)-propan-2-yl)cyclohexyl)acetamide] was tested, and the “Biological example 1: glucose uptake, activity compared to that of isoproterenol” value (L6-myotubes [1]) was “+ + +” and the Emax at 10 µM (L6-myotubes [2]) was less than 25%.
`CC(C)(NC[C@H](O)c1cncc(F)c1)[C@H]1CC[C@H](NS(C)(=O)=O)CC1` [Example 83, N-((1R,4r)-4-(2-(((R)-2-(5-Fluoropyridin-3-yl)-2-hydroxyethyl)amino)-propan-2-yl)cyclohexyl)methanesulfonamide] gave an Emax at 10 µM (L6-myotubes [1]) of 25 to 50% and an Emax at 10 µM (L6-myotubes [2]) of less than 25%.
